What was measured:
RAW 264.7 cells = test: AlamarBlue assay for cell viability (cytotoxicity); conditions: read-out: IC50 (cytotoxicity), RAW 264.7 macrophages, 24 h treatment, 6.25-100 µM tested
[1] = tested on: LPS-activated RAW 264.7 macrophages; test: NO production inhibitory assay (Griess reaction); type: cell-based, murine; conditions: for ED50 (inhibition of LPS-induced NO production): RAW 264.7 macrophages, LPS 1 µg/ml, 24 h, Griess reaction; for NO production by LPS-activated cells: 2.5-40 µM, 30 min before and during LPS 1 µg/ml 24 h; for NO levels produced by non-activated cells: compound alone, no LPS (data not shown)
Description: RAW 264.7 cells seeded in 24-well plates at a density of 5 × 10^5 cells/ml (1 ml) were incubated for 24 h with or without LPS (1 µg/ml) in the absence or presence of the test samples, then NO production was measured indirectly by analysis of nitrite levels using the Griess reaction.
(§1) To investigate the inhibitory effect of compounds 1h, 1i, and 1n on the LPS-induced inflammatory response, NO levels in the supernatants of RAW 264.7 macrophages incubated with DMSO (vehicle) or compound 1h, 1i, or 1n for 30 min before, and during, incubation for 24 h with LPS (1 µg/ml) were measured by the Griess reaction. […] We next investigated their effect on the expression of iNOS, the NO producing enzyme, using Western blots.
(§2) Figure 2 Effect of polyenylpyrrole derivatives on the expression of inflammatory mediators in LPS-stimulated RAW 264.7 macrophages. In (A) and (C), the cells (5 × 10^5/ml; 1 ml) were incubated for 30 min with 2.5-40 µM compound 1h, 1i, or 1n or DMSO (vehicle), then LPS (1 µg/ml) was added and incubation continued for 24 h, then NO (A) or IL-6 or TNF-α (C) in the culture medium was assayed by the Griess reaction or ELISA, respectively. In (B), cells (5 × 10^5/ml; 1 ml) were pretreated for 30 min with 2.5-40 µM compound 1h or DMSO, then LPS (1 µg/ml) was added and incubation continued for 24 h, then expression of iNOS and COX-2 was measured by Western blotting. The fold increase is the intensity of the band of interest divided by that of the actin band normalized to the corresponding value for the 0 LPS/0 inhibitor control.

[2] = tested on: LPS-activated RAW 264.7 macrophages; test: iNOS and COX-2 expression by Western blot; type: cell-based, murine; conditions: 30 min pretreatment, LPS 24 h; for COX-2 expression / LPS-induced iNOS expression: 0-40 µM; for Concentration at which reduction of LPS-induced iNOS expression is significant: Western blot
Description: Cells were washed twice with ice-cold phosphate-buffered saline (PBS) and lysed on ice for 5 min with lysis buffer (20 mM Tris-HCl, pH 7.5, 150 mM NaCl, 1 mM Na 2EDTA, 1 mM EGTA, 1% Triton X-100, 2.5 mM sodium pyrophosphate, 1 mM beta-glycerophosphate, 1 mM Na 3VO4, 1 µg/ml of leupeptin, 1 mM PMSF, protease inhibitor cocktail). The lysate was then centrifuged at 12,000 x g at 4 °C for 10 min and the pellet discarded. Proteins in the supernatant were separated by SDS-PAGE and electrotransferred to a PVDF membrane (EMD Millipore Corporation), which was then blocked by incubation for 1 h at room temperature in blocking buffer [(5% nonfat milk in PBS containing 0.1% Tween 20 (PBST)], then incubated for 2 h at room temperature with the primary antibody diluted in blocking buffer. After three washes in PBST, the membrane was incubated for 1 h at room temperature with an appropriate HRP-conjugated secondary antibody diluted in blocking buffer and developed using an enhanced chemiluminescence Western blot detection system (EMD Millipore Corporation).
as §1, §2

[3] = tested on: LPS-activated RAW 264.7 macrophages; test: IL-6 and TNF-α secretion by ELISA; type: cell-based, murine; conditions: for IL-6 production by LPS-activated cells / TNF-α secretion by LPS-activated cells: RAW 264.7, 2.5-40 µM, LPS 1 µg/ml 24 h; for Background levels of IL-6 and TNF-α in non-stimulated macrophages: RAW 264.7, no LPS (data not shown)
Description: The effects of the test samples on IL-1β, TNF-α, and IL-6 production were measured by ELISA according to the manufacturer’s instructions. In brief, 50 µl of biotinylated antibody reagent and 50 µl of supernatant were added to a stripwell plate precoated with anti-mouse IL-1β, TNF-α, or IL-6 antibodies, which was then incubated at room temperature for 2 h. After washing the plate three times with washing buffer, 100 µl of diluted streptavidin-HRP concentrate was added to each well and the plate incubated at room temperature for 30 min. The washing process was repeated, then 100 µl of a premixed tetramethylbenzidine substrate solution was added to each well and the plate incubated at room temperature in the dark for 30 min. After addition of 100 µl of stop solution to each well, the absorbance at 450 nm of each well was measured on a microplate reader.
as §1, §2

[4] = tested on: ATP-activated LPS-primed J774A.1 macrophages; test: Intracellular ROS production (DCF fluorescence), ATP-induced; type: cell-based, murine
Description: Intracellular ROS production was measured by detecting the fluorescence intensity of the 2’, 7’-dichlorofluorescein, the oxidation product of 2’, 7’-dichlorofluorescein diacetate (Molecular Probes, Eugene, OR). […] In another, J774A.1 macrophages (5 × 10^5/ml; 0.1 ml) were incubated with LPS (1 µg/ml) for 6 h, then vehicle, compound 1h (20 µM), or DPI (25 µM) was added for 30 min. 2’, 7’-dichlorofluorescein diacetate (2 µM) was then added for 30 min before incubation with ATP (5 mM) for the indicated time; while, in another, the order of addition of compound1h/DPI and LPS was reversed. The fluorescence intensity of 2’, 7’-dichlorofluorescein was detected at an excitation wavelength of 485 nm and an emission wavelength of 530 nm on a microplate absorbance reader (Bio-Rad Laboratories, Inc).
In (A), J774A.1 macrophages (1 × 10^6/ml; 1 ml) were incubated with LPS (1 µg/ml) for 6 h, then with compound 1h (20 µM), the NADPH oxidase inhibitor DPI (25 µM), or DMSO (vehicle) for 30 min in the continued presence of LPS, then 2’,7’-dichlorofluorescein diacetate (2 µM) was added for 30 min, followed by ATP (5 mM) for the indicated time, then ROS levels were determined by measuring the mean fluorescence intensity (MFI) of the fluorophore carboxyl-DCF and expressing this value relative to that at time zero. In (B), J774A.1 macrophages (1 × 10^6/ml; 1 ml) were incubated with compound 1h (20 µM), DPI (25 µM), or DMSO (vehicle) for 30 min, then LPS (1 µg/ml) was added for 6 h; the cells were then incubated with 2’,7’-dichlorofluorescein diacetate (2 µM) for 30 min, then with ATP (5 mM) for the indicated time and ROS levels were measured by detection of the fluorescence intensity of the fluorophore carboxyl-DCF and expressed relative to that at time zero.

[5] = tested on: LPS-activated RAW 264.7 macrophages; test: Intracellular ROS production (DCF fluorescence), LPS-induced; type: cell-based, murine; conditions: RAW 264.7, 30 min pretreatment; compound 1h 20 µM, NAC 10 mM
Description: Intracellular ROS production was measured by detecting the fluorescence intensity of the 2’, 7’-dichlorofluorescein, the oxidation product of 2’, 7’-dichlorofluorescein diacetate (Molecular Probes, Eugene, OR). In one study, RAW 264.7 macrophages (5 × 10^5/ml; 0.1 ml) were incubated with vehicle, compound 1h (20 µM), or NAC (10 mM) for 30 min, then 2’, 7’-dichlorofluorescein diacetate (2 µM) was added for 30 min, then LPS was added for the indicated time. In another, J774A.1 macrophages (5 × 10^5/ml; 0.1 ml) were incubated with LPS (1 µg/ml) for 6 h, then vehicle, compound 1h (20 µM), or DPI (25 µM) was added for 30 min. 2’, 7’-dichlorofluorescein diacetate (2 µM) was then added for 30 min before incubation with ATP (5 mM) for the indicated time; while, in another, the order of addition of compound1h/DPI and LPS was reversed. The fluorescence intensity of 2’, 7’-dichlorofluorescein was detected at an excitation wavelength of 485 nm and an emission wavelength of 530 nm on a microplate absorbance reader (Bio-Rad Laboratories, Inc).
To test whether compound 1h exerted its anti-inflammatory effect on LPS-activated cells by downregulation of ROS production, intracellular ROS production in LPS-activated RAW 264.7 macrophages was measured.
Figure 5 Effect of compound 1h on ROS production and MAPK phosphorylation in LPS-activated macrophages. […]

in vitro = conditions: mouse
various cancer cells = tested on: various cancer cells; parameters: method as in PMID 16468746; conditions: cited from earlier work

## COc1cc(/C=C/C=C/C=C/C=C/c2[nH]ccc2Cl)oc(=O)c1 [1a]
RAW 264.7 cells
  IC50: < 10 µM

## CCCCc1c(OC)cc(/C=C/C=C/C=C/C=C/c2[nH]ccc2Cl)oc1=O [1c]
RAW 264.7 cells
  IC50: < 10 µM

## COc1cc(/C(C)=C/C=C/C=C/C=C/c2[nH]ccc2Cl)oc(=O)c1 [1d]
RAW 264.7 cells
  IC50: < 10 µM

## CC\C(=C/C=C/C=C/C=C/c1[nH]ccc1Cl)c1cc(OC)c(C)c(=O)o1 [1f]
RAW 264.7 cells
  IC50: < 10 µM

## CCCCc1c(OC)cc(/C(C)=C/C=C/C=C/C=C/c2[nH]ccc2Cl)oc1=O [1g]
RAW 264.7 cells
  IC50: < 10 µM

## COc1cc(/C=C/C=C/C=C/C=C/c2sccc2Cl)oc(=O)c1 [1j]
[1]
  ED50 (inhibition of LPS-induced NO production): 29 ± 6 µM
RAW 264.7 cells
  IC50: > 100 µM

## COc1cc(/C=C/C=C/C=C/C=C/c2sccc2Cl)oc(=O)c1C [1k]
[1]
  ED50 (inhibition of LPS-induced NO production): 18 ± 2 µM
RAW 264.7 cells
  IC50: > 100 µM

## COc1cc(/C=C/C=C/C=C/C=C/c2ccccc2Cl)oc(=O)c1C [1l]
[1]
  ED50 (inhibition of LPS-induced NO production): 18 ± 3 µM
RAW 264.7 cells
  IC50: > 100 µM

## COc1cc(/C=C/C=C/C=C/C=C/c2cccc(Cl)c2)oc(=O)c1C [1m]
[1]
  ED50 (inhibition of LPS-induced NO production): 26 ± 3 µM
RAW 264.7 cells
  IC50: > 100 µM

## COc1cc(/C=C/C=C/C=C/C=C/c2c(Cl)ccn2S(C)(=O)=O)oc(=O)c1C [1n]
[2]
  COX-2 expression: did not affect expression of COX-2
  LPS-induced iNOS expression: reduced LPS-induced iNOS expression
  Concentration at which reduction of LPS-induced iNOS expression is significant: 40 µM
[3]
  IL-6 production by LPS-activated cells: significantly decreased IL-6 production by LPS-activated cells in a dose-dependent manner
  TNF-α secretion by LPS-activated cells: only slightly and non-significantly reduced
  Background levels of IL-6 and TNF-α in non-stimulated macrophages: none of the three compounds altered background levels of IL-6 and TNF-α
[1]
  NO production by LPS-activated cells: decreased NO production by LPS-activated cells in a dose-dependent manner
  ED50 (inhibition of LPS-induced NO production): 17 ± 2 µM
  NO levels produced by non-activated cells: did not alter NO levels produced by non-activated cells
RAW 264.7 cells
  IC50: > 100 µM

## c1ccc2c(c1)[I+]c1ccccc1-2 [DPI, diphenylene iodonium, reference compound]
[4]; J774A.1, LPS 6 h, then compound 1h 20 µM or DPI 25 µM 30 min, ATP 5 mM 0-40 min
  ATP-induced ROS production, compound added after LPS priming: inhibited both processes
[4]; J774A.1, compound 1h 20 µM or DPI 25 µM 30 min, then LPS 6 h, then ATP 5 mM
  ATP-induced ROS production, compound added 30 min before LPS priming: inhibited both processes

## CC(=O)N[C@@H](CS)C(=O)O [NAC, N-acetyl cysteine, reference compound]
[5]
  LPS-stimulated ROS production: reduced ROS production

## COc1cc(/C=C/C=C/C=C/C=C/c2[nH]ccc2Cl)oc(=O)c1C [compound 1b, auxarconjugatin A]
In vitro
  IC50: < 10 µM

## COc1cc(/C(C)=C/C=C/C=C/C=C/c2[nH]ccc2Cl)oc(=O)c1C [compound 1e, 12E-isorumbrin]
Various cancer cells
  Cytotoxicity for various cancer cells: shown to be cytotoxic for various cancer cells
In vitro
  IC50: < 10 µM

## Cc1c(O)cc(/C=C/C=C/C=C/C=C/c2[nH]ccc2Cl)oc1=O [compound 1i]
[2]
  COX-2 expression: did not affect expression of COX-2
  LPS-induced iNOS expression: reduced LPS-induced iNOS expression
  Concentration at which reduction of LPS-induced iNOS expression is significant: 40 µM
[3]
  IL-6 production by LPS-activated cells: significantly decreased IL-6 production by LPS-activated cells in a dose-dependent manner
  TNF-α secretion by LPS-activated cells: only slightly and non-significantly reduced
  Background levels of IL-6 and TNF-α in non-stimulated macrophages: none of the three compounds altered background levels of IL-6 and TNF-α
[1]
  NO production by LPS-activated cells: decreased NO production by LPS-activated cells in a dose-dependent manner
  ED50 (inhibition of LPS-induced NO production): 16 ± 2 µM
  NO levels produced by non-activated cells: did not alter NO levels produced by non-activated cells
RAW 264.7 cells
  IC50: > 100 µM

From PMC3792051, “Polyenylpyrrole Derivatives Inhibit NLRP3 Inflammasome Activation and Inflammatory Mediator Expression by Reducing Reactive Oxygen Species Production and Mitogen-Activated Protein Kinase Activation” (PLoS ONE, 2013)
